Where “and” joins values, the source holds several entries; their conditions need not be identical. Equal entries are not always repeated.
Columns and labels:
[1] = Mouse pharmacokinetic (PK) study, parent compound and psilocin metabolite in plasma; type: in vivo, C57Bl/6 mice; conditions: for bioavailability: male, C57Bl/6, mouse, plasma, po
From the text: Briefly, the procedure was as follows. […] 19, 2022.

5-HT1A receptor = target: T1, 5-HT1A receptor (Homo sapiens, UniProt P08908); assay: cAMP-Glo assay of 5-HT1A receptor modulation, +5-HT1A (CHO-K1/5-HT1A/Ga15) vs -5-HT1A (CHO-K1/Ga15) cells; type: cell-based; parameters: dose or concentration left out as unconfirmed; conditions: +5-HT1A vs -5-HT1A cell cultures stimulated with forskolin, increasing ligand concentrations
T1 construct: host or cells: CHO-K1 (co-expressing Ga15)
T1 sequence (P08908 1-422): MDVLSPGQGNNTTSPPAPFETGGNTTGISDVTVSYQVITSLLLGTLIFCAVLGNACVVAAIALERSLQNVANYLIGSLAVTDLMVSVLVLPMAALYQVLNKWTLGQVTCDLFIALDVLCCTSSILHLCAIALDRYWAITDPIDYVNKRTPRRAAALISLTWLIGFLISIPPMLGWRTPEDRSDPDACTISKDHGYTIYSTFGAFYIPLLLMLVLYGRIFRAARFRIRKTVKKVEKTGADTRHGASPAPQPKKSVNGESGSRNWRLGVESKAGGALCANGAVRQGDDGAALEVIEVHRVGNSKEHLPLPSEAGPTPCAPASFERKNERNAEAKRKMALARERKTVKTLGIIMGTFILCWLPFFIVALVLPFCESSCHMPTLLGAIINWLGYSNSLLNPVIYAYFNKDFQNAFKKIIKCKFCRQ

[2] = target: T2, neuronal 5-HT2A receptor (5-HT2AR) (Mus musculus, UniProt P35363); assay: Drug-induced Head Twitch Response (HTR) in mice; type: in vivo, C57BL/6-Elite mice; conditions: 1 mg/kg i.p., 15-to-30-minute window post-drug, relative to vehicle-treated control mice
T2 construct: HTR was measured in mice treated with a control and test compounds; tissue Charles River; host or cells: live C57BL/6-Elite mice (neuronal receptor)

[3] = administered compound itself in plasma, 1 mg/kg i.v., individual animals, 1 mg/kg
[4] = administered compound itself in plasma, 1 mg/kg i.v., mean ± SD
[5] = administered compound itself in plasma, 1 mg/kg oral, individual animals, 1 mg/kg
[6] = administered compound itself in plasma, 1 mg/kg oral, mean ± SD, 1 mg/kg
[7] = administered compound itself in plasma, 3 mg/kg oral, individual animals, 3 mg/kg
[8] = administered compound itself in plasma, 3 mg/kg oral, mean ± SD
[9] = administered compound itself in plasma, 3 mg/kg oral, mean ± SD, 3 mg/kg
[10] = administered compound itself in plasma, 10 mg/kg oral, individual animals, 10 mg/kg
[11] = administered compound itself in plasma, 10 mg/kg oral, mean ± SD

T2 sequence (P35363 whole entry): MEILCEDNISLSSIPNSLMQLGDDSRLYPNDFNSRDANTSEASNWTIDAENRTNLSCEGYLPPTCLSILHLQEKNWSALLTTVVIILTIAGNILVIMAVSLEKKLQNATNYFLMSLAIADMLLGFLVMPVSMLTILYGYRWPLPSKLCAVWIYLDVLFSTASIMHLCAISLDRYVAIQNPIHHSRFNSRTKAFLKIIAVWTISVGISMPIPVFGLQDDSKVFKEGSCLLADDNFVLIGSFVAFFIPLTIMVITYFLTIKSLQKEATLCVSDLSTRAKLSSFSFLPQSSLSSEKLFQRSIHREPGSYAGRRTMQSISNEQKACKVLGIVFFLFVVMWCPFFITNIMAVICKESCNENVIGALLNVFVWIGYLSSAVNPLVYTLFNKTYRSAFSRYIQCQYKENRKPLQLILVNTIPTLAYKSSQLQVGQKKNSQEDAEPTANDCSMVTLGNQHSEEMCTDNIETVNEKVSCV

Compound: CN(C)CCc1c[nH]c2cccc(OC(=O)c3ccc(Br)cc3)c12 [C(I)]
- F(%), M37 considered as an outlier ([1]; 10 mg/kg oral, AUC0-tlast used for p.o. group, i.v. animal M37 considered an outlier, mean ± SD): 3.22 ± 0.731%
- F(%) ([1]; 10 mg/kg oral, AUC0-tlast used for p.o. group, individual animals): 0.447% and 0.627%
- AUC0-inf [1, 3]: 1014 ng·h/mL and 64.4 ng·h/mL and 51.9 ng·h/mL
- AUC0-inf/Dose [1, 3]: 1014 kg·ng·h/mL/mg and 64.4 kg·ng·h/mL/mg and 51.9 kg·ng·h/mL/mg
- AUC0-tlast [1, 3]: 1006 ng·h/mL and 63.7 ng·h/mL and 51.4 ng·h/mL
- AUC0-tlast/Dose [1, 3]: 1006 kg·ng·h/mL/mg and 63.7 kg·ng·h/mL/mg and 51.4 kg·ng·h/mL/mg
- Apparent t1/2 [1, 3]: 72.6 min and 38.6 min
- C0 [1, 3]: 3792 ng/mL and 168 ng/mL and 132 ng/mL
- CL [1, 3]: 16.4 mL/min/kg and 258.9 mL/min/kg and 321.08 mL/min/kg
- MRT0-inf [1, 3]: 46.8 min and 39.4 min
- Vss [1, 3]: 0.56 L/kg and 12.109 L/kg and 12.65 L/kg
- AUC0-inf/Dose [1, 4]: 377 ± 552 kg·ng·h/mL/mg
- AUC0-tlast/Dose [1, 4]: 374 ± 548 kg·ng·h/mL/mg
- MRT0-inf [1, 4]: 40.1 ± 6.36 min
- AUC0-tlast/Dose ([1]; administered compound itself in plasma, 1 mg/kg i.v., mean, n = 2 (apparently without possible outlier M37)): 57.6 kg·ng·h/mL/mg
- AUC0-tlast [1, 5]: 2.09 ng·h/mL and 0.169 ng·h/mL and 1.75 ng·h/mL
- AUC0-tlast/Dose [1, 5]: 2.09 kg·ng·h/mL/mg and 0.169 kg·ng·h/mL/mg and 1.75 kg·ng·h/mL/mg
- Cmax [1, 5]: 0.816 ng/mL and 0.54 ng/mL and 1.28 ng/mL
- Cmax/Dose [1, 5]: 0.816 kg·ng/mL/mg and 0.54 kg·ng/mL/mg and 1.28 kg·ng/mL/mg
- AUC0-tlast/Dose [1, 6]: 1.34 ± 1.02 kg·ng·h/mL/mg and 1.34 kg·ng·h/mL/mg
- Cmax/Dose [1, 6]: 0.877 ± 0.376 kg·ng/mL/mg and 0.877 kg·ng/mL/mg
- AUC0-tlast [1, 7]: 5.47 ng·h/mL and 5.91 ng·h/mL
- AUC0-tlast/Dose [1, 7]: 1.75 kg·ng·h/mL/mg and 1.82 kg·ng·h/mL/mg and 1.97 kg·ng·h/mL/mg
- Cmax [1, 7]: 2.16 ng/mL and 2.34 ng/mL
- Cmax/Dose [1, 7]: 0.650 kg·ng/mL/mg and 0.720 kg·ng/mL/mg and 0.780 kg·ng/mL/mg
- tmax [1, 7]: 15 min
- AUC0-tlast [1, 8]: 5.54 ± 0.330 ng·h/mL
- Cmax [1, 8]: 2.15 ± 0.195 ng/mL
- AUC0-tlast/Dose [1, 9]: 1.85 ± 0.110 kg·ng·h/mL/mg and 1.85 kg·ng·h/mL/mg
- Cmax/Dose [1, 9]: 0.717 ± 0.0651 kg·ng/mL/mg and 0.717 kg·ng/mL/mg
- AUC0-inf [1, 10]: 24.1 ng·h/mL
- AUC0-tlast [1, 10]: 16.8 ng·h/mL and 23.6 ng·h/mL
- AUC0-tlast/Dose [1, 10]: 1.58 kg·ng·h/mL/mg and 1.68 kg·ng·h/mL/mg and 2.36 kg·ng·h/mL/mg
- Apparent t1/2 [1, 10]: 70.2 min
- Cmax [1, 10]: 7.10 ng/mL and 10.9 ng/mL
- Cmax/Dose [1, 10]: 0.720 kg·ng/mL/mg and 0.710 kg·ng/mL/mg and 1.09 kg·ng/mL/mg
- MRT0-inf [1, 10]: 144 min
- tmax [1, 10]: 30 min
- AUC0-tlast/Dose [1, 11]: 1.87 ± 0.425 kg·ng·h/mL/mg
- Cmax/Dose [1, 11]: 0.840 ± 0.217 kg·ng/mL/mg
- bioavailability ([1]; 1 mg/kg, 1 mg/kg oral, AUC0-tlast used for p.o. group, value might be under-estimated, mean ± SD): 0.355 ± 0.272%
- bioavailability ([1]; 3 mg/kg, 3 mg/kg oral, AUC0-tlast used for p.o. group, value might be under-estimated, individual animals): 0.466%
- bioavailability ([1]; 3 mg/kg, 3 mg/kg oral, AUC0-tlast used for p.o. group, value might be under-estimated, mean ± SD): 0.491 ± 0.0292%
- bioavailability ([1]; 10 mg/kg, 10 mg/kg oral, AUC0-tlast used for p.o. group, individual animals): 0.419%
- bioavailability ([1]; 10 mg/kg, 10 mg/kg oral, AUC0-tlast used for p.o. group, mean ± SD): 0.498 ± 0.113%
- 5-HT1A receptor modulation (reduction of cAMP levels) (5-HT1A receptor): mild receptor modulation at higher ligand concentrations
- Incidences of Head Twitch Response (HTR) [2]: Elevated incidences of HTR

Source: US12065404B2, “C4-carboxylic acid-substituted tryptamine derivatives and methods of using” (priority 2022, dated 2024)
